The subject of the experiment is SARS-CoV-2 pseudoviruses carrying spike mutations of B.1.1.7 UK, B.1.351 RSA and B.1.617.2 India (Delta) variants. The experiment is classed as cell-based.

The text below walks through data of patent US20220348569A1 (priority 2021, published 2022).

“And” between values parts separate entries of the source, which are not always exact repeats. Equal entries are not always repeated. Where two headings read alike, the source gives them in different places.

`O=C(O)c1cc(-c2ccc(/C=C3\SC(=S)N(CCc4ccccc4)C3=O)o2)ccc1Cl` [Compound 1, (Z)-2-Chloro-5-(5-((4-oxo-3-phenethyl-2-thioxothiazolidin-5-ylidene)methyl)furan-2-yl)benzoic acid]: the “antiviral activity against mutant pseudoviruses (in words)” value (shortened to “antiviral activity”) is reported as “potent antiviral activity against all mutant pseudoviruses”. Further, the IC50 (read-out: IC50) was 57 nM and 33 nM.

For `O=C(O)c1cccc(-c2ccc(/C=C3\SC(=S)N(CCc4ccccc4)C3=O)o2)c1` [Compound 2], the “antiviral activity” value is listed as “highly potent inhibitor against all mutant pseudoviruses”. Moreover, the IC50 (read-out: IC50 in the range for all the pseudovirus variants) is 35 to 88.7 nM. On to `O=C(O)c1cc(-c2ccc(/C=C3\SC(=S)N(CCc4ccccc4)C3=O)o2)ccc1F` [Compound 3], for which the “antiviral activity” value is given as “slightly less efficient against all the pseudoviruses tested”. Further, where the note is “read-out: IC50”, the IC50 amounted to 232 ± 17 nM. For the compound `Cc1ccc(-c2ccc(/C=C3\SC(=S)N(CCc4ccccc4)C3=O)o2)cc1C(=O)O` [Compound 4], the IC50 (read-out: IC50 against B.1.617.2 Delta single, double and triple mutant variants) fell in the range of 148 to 239 nM. Regarding `Cc1c(C(=O)O)cccc1-c1ccc(/C=C2\SC(=S)N(CCc3ccccc3)C2=O)o1` [Compound 5], the “antiviral activity” value was “poor/no activity”. Also, the IC50 (read-out: IC50) is > 2000 nM and 1730 nM and 1850 nM and 1720 nM.
